Here are results for 7 cell lines from the supplement of paper PMC10307832.

Common to all, as to assay: relative viability (nuclei count vs DMSO), 5 days (fraction); higher = more cells survive
Compound in the experiment “XMD8-85 + Luminespib”: CN1CCN(CC1)C2=CC(=C(C=C2)NC3=NC=C4C(=N3)N(C5=CC=CC=C5C(=O)N4C)C)OC [XMD8-85] + CCNC(=O)c1noc(-c2cc(C(C)C)c(O)cc2O)c1-c1ccc(CN2CCOCC2)cc1 [Luminespib] (partner 0.01 µM)
An outline of the steps:
(§1)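 One day after seeding in 1536-well plates, lung cancer cell lines were dosed by pin tool. Dosing was either single-drug or a fixed anchor-drug dose plus five library-drug doses (not always all listed) in √10 steps. After 5 days, nuclei were stained in one fix-and-stain step and counted on 4× images, and relative viability is the nuclei count of treated wells over that of vehicle wells, given as the median of duplicate plates.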

Compound in the experiment “4EGI-1 + OSI-027”: O=C(O)C(Cc1ccccc1[N+](=O)[O-])=NNc1nc(-c2ccc(Cl)c(Cl)c2)cs1 (mixture of isomers) [4EGI-1] + COc1cccc2cc(-c3nc([C@H]4CC[C@H](C(=O)O)CC4)n4ncnc(N)c34)[nH]c12 [OSI-027] (partner 0.5 µM)
An outline of the steps: as §1

Compound in the experiment “XMD8-85 + Pemetrexed”: CN1CCN(CC1)C2=CC(=C(C=C2)NC3=NC=C4C(=N3)N(C5=CC=CC=C5C(=O)N4C)C)OC [XMD8-85] + Nc1nc2[nH]cc(CCc3ccc(C(=O)N[C@@H](CCC(=O)O)C(=O)O)cc3)c2c(=O)[nH]1 [Pemetrexed] (partner 0.2 µM)
An outline of the steps:
as §1

Compound in the experiment “XMD8-85 + Crizotinib”: CN1CCN(CC1)C2=CC(=C(C=C2)NC3=NC=C4C(=N3)N(C5=CC=CC=C5C(=O)N4C)C)OC [XMD8-85] + C[C@@H](Oc1cc(-c2cnn(C3CCNCC3)c2)cnc1N)c1c(Cl)ccc(F)c1Cl [Crizotinib] (partner 1 µM)
An outline of the steps:
as §1

With NCI-H1623, the relative viability with XMD8-85 + Luminespib (first compound 0.08 µM) is 0.489; in the experiment with XMD8-85 + Luminespib (first compound 0.253 µM), 0.418; in the experiment with XMD8-85 + Luminespib (first compound 0.8 µM) it was 0.58; with XMD8-85 + Luminespib (first compound 2.53 µM), 0.42; in the experiment with XMD8-85 + Luminespib (first compound 8 µM), 0.489; with 4EGI-1 + OSI-027 (first compound 0.5 µM), 0.457. The relative viability with 4EGI-1 + OSI-027 (first compound 1.581 µM) was 0.418; in the experiment with 4EGI-1 + OSI-027 (first compound 5 µM), 0.475; with 4EGI-1 + OSI-027 (first compound 15.81 µM), 0.324; with 4EGI-1 + OSI-027 (first compound 50 µM) it was 0.382.
For NCI-H1648, the relative viability with XMD8-85 + Pemetrexed (first compound 0.253 µM) came to 0.693; with XMD8-85 + Pemetrexed (first compound 0.8 µM), 0.826; in the experiment with XMD8-85 + Pemetrexed (first compound 2.53 µM) it was 0.765; with XMD8-85 + Pemetrexed (first compound 8 µM), 0.692; with 4EGI-1 + OSI-027 (first compound 0.5 µM), 0.254; with 4EGI-1 + OSI-027 (first compound 1.581 µM), 0.26. Also, the results for the relative viability with 4EGI-1 + OSI-027 (first compound 5 µM), in the experiment with 4EGI-1 + OSI-027 (first compound 15.81 µM) and with 4EGI-1 + OSI-027 (first compound 50 µM) were 0.252, 0.302 and 0.213, respectively.
As for NCI-H2342, the relative viability in the experiment with XMD8-85 + Luminespib (first compound 0.08 µM) is 0.649; with XMD8-85 + Luminespib (first compound 0.253 µM), 0.719; in the experiment with XMD8-85 + Luminespib (first compound 0.8 µM), 0.74; with XMD8-85 + Luminespib (first compound 2.53 µM), 0.809; in the experiment with XMD8-85 + Luminespib (first compound 8 µM), 0.887; with XMD8-85 + Pemetrexed (first compound 0.08 µM) it was 0.808. The relative viability was 0.805 with XMD8-85 + Pemetrexed (first compound 0.253 µM); 0.891 in the experiment with XMD8-85 + Pemetrexed (first compound 0.8 µM); 0.828 in the experiment with XMD8-85 + Pemetrexed (first compound 2.53 µM); 0.775 with XMD8-85 + Pemetrexed (first compound 8 µM); 0.596 in the experiment with 4EGI-1 + OSI-027 (first compound 0.5 µM); 0.644 in the experiment with 4EGI-1 + OSI-027 (first compound 1.581 µM). Also, the relative viability with 4EGI-1 + OSI-027 (first compound 5 µM) was 0.62; with 4EGI-1 + OSI-027 (first compound 15.81 µM) it was 0.625; with 4EGI-1 + OSI-027 (first compound 50 µM) it was 0.517.
For the cell line Calu-6, the relative viability with XMD8-85 + Crizotinib (first compound 0.08 µM) was 0.689; with XMD8-85 + Crizotinib (first compound 0.253 µM), 0.607; with XMD8-85 + Crizotinib (first compound 0.8 µM), 0.894; with XMD8-85 + Crizotinib (first compound 8 µM) it was 0.396.
NCI-H1793: the relative viability stood at 0.144 in the experiment with XMD8-85 + Luminespib (first compound 0.08 µM); 0.182 with XMD8-85 + Luminespib (first compound 0.253 µM); 0.146 with XMD8-85 + Luminespib (first compound 0.8 µM); 0.201 in the experiment with XMD8-85 + Luminespib (first compound 2.53 µM); 0.23 in the experiment with XMD8-85 + Luminespib (first compound 8 µM); 0.824 with XMD8-85 + Pemetrexed (first compound 0.253 µM). Besides, the relative viability in the experiment with XMD8-85 + Pemetrexed (first compound 0.8 µM) amounted to 0.839; with XMD8-85 + Pemetrexed (first compound 2.53 µM), 1.18; in the experiment with XMD8-85 + Pemetrexed (first compound 8 µM) it was 0.645; with 4EGI-1 + OSI-027 (first compound 0.5 µM), 0.331; with 4EGI-1 + OSI-027 (first compound 1.581 µM), 0.287; in the experiment with 4EGI-1 + OSI-027 (first compound 5 µM), 0.355. The relative viability was determined as 0.247 in the experiment with 4EGI-1 + OSI-027 (first compound 15.81 µM) and 0.134 with 4EGI-1 + OSI-027 (first compound 50 µM).
Take ABC-1: the relative viability with XMD8-85 + Luminespib (first compound 0.8 µM) turned out to be 0.793; with XMD8-85 + Luminespib (first compound 2.53 µM) it was 0.703; with XMD8-85 + Luminespib (first compound 8 µM), 0.373; with XMD8-85 + Crizotinib (first compound 0.08 µM), 1.3; in the experiment with XMD8-85 + Crizotinib (first compound 0.253 µM), 0.882; in the experiment with XMD8-85 + Crizotinib (first compound 0.8 µM) it was 1.41. In addition, the relative viability with XMD8-85 + Crizotinib (first compound 2.53 µM) stood at 0.994; in the experiment with XMD8-85 + Crizotinib (first compound 8 µM), 0.49; with 4EGI-1 + OSI-027 (first compound 0.5 µM) it was 0.642; with 4EGI-1 + OSI-027 (first compound 1.581 µM) it was 0.357; with 4EGI-1 + OSI-027 (first compound 5 µM), 0.455; with 4EGI-1 + OSI-027 (first compound 15.81 µM) it was 0.313. Moreover, the relative viability with 4EGI-1 + OSI-027 (first compound 50 µM) turned out to be 0.218.
For NCI-H727, the relative viability with XMD8-85 + Luminespib (first compound 0.08 µM) is 0.431; with XMD8-85 + Luminespib (first compound 0.253 µM), 0.527; with XMD8-85 + Luminespib (first compound 0.8 µM) it was 0.359; with XMD8-85 + Luminespib (first compound 2.53 µM), 0.322; with XMD8-85 + Luminespib (first compound 8 µM) it was 0.344; with XMD8-85 + Crizotinib (first compound 0.08 µM), 0.78. Moreover, the relative viability in the experiment with XMD8-85 + Crizotinib (first compound 0.253 µM) came out at 0.777; with XMD8-85 + Crizotinib (first compound 0.8 µM), 0.755; with XMD8-85 + Crizotinib (first compound 2.53 µM), 0.595; with XMD8-85 + Crizotinib (first compound 8 µM), 0.358; in the experiment with 4EGI-1 + OSI-027 (first compound 0.5 µM) it was 0.669; with 4EGI-1 + OSI-027 (first compound 1.581 µM), 0.652. Also, the figures for the relative viability with 4EGI-1 + OSI-027 (first compound 5 µM), with 4EGI-1 + OSI-027 (first compound 15.81 µM) and with 4EGI-1 + OSI-027 (first compound 50 µM) were 0.538, 0.552 and 0.451, respectively.
